The text below walks through data of paper PMC4261083, “An atypical residue in the pore of Varroa destructor GABA-activated RDL receptors affects picrotoxin block and thymol modulation” (Insect Biochemistry and Molecular Biology, 2014).

What all share (assay type): cell-based
Experiment [1] has as its target T1, A21′Q mutant Drosophila RDL receptor (Drosophila melanogaster, UniProt P25123, A320Q).
T1 construct: expressed in transfected cells; host or cells: Xenopus laevis oocytes injected with cRNA
T1 sequence (P25123 45-606 A320Q): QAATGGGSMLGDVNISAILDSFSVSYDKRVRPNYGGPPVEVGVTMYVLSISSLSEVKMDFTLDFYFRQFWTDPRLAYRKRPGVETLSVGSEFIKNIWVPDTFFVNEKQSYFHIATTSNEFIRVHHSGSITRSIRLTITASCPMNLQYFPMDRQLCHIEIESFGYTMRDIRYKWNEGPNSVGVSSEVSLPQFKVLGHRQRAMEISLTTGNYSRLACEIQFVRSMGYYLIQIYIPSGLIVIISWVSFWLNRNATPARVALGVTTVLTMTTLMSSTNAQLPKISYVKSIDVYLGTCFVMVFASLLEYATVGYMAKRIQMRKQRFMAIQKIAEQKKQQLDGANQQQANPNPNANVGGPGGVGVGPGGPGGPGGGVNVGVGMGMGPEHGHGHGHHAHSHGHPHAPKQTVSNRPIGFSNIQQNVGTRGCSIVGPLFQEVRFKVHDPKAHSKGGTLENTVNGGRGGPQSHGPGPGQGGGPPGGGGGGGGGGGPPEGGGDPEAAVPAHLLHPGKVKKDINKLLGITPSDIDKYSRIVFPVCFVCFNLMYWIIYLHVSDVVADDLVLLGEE
The experiment is described as follows: GABA activation of RDL receptors, two electrode voltage clamp in Xenopus oocytes. As for the experimental part:
(§1) X. laevis oocyte-positive females were purchased from NASCO (Fort Atkinson, Wisconsin, USA) and maintained according to standard methods. Harvested stage V-VI Xenopus oocytes were washed in four changes of ND96 (96 mM NaCl, 2 mM KCl, 1 mM MgCl2, 1 mM CaCl2, 5 mM HEPES, pH 7.5), de-folliculated in 1.5 mg ml^−1 collagenase Type 1A for approximately 2 h, washed again in four changes of ND96 and stored in ND96 containing 2.5 mM sodium pyruvate, 0.7 mM theophylline and […].
(§2) Site directed mutagenesis was performed with the QuikChange mutagenesis kit (Agilent, La Jolla, CA). cRNA was transcribed in vitro from linearised pGEMHE cDNA template using the mMessage mMachine T7 Transcription kit (Ambion, Austin, Texas, USA). Stage V and VI oocytes were injected with 5 ng cRNA, incubated at 18 °C, and currents recorded 18–24 h post-injection.
(§3) Currents were recorded at 5 kHz and filtered at a frequency of 1 kHz. Micro-electrodes were fabricated from borosilicate glass (GC120TF-10, Harvard Apparatus, Edenbridge, Kent, UK) using a one stage horizontal pull (P-87, Sutter Instrument Company, California, USA) and filled with 3 M KCl. […] Oocytes were perfused with ND96 at a constant rate of 12 ml min^−1. Drug application was via a simple gravity fed system calibrated to run at the same rate.
(§4) Analysis and curve fitting was performed using Prism v5 (GraphPad Software, San Diego, California, USA). Concentration-response data for each oocyte was normalised to the maximum current for that oocyte. The mean and S.E.M. for a series of oocytes were fitted to the four parameter logistic equation in Prism.
Background: Two-electrode voltage clamp is typically applied to oocytes expressing channels or transporters.

The target in experiment [2] is T2, wild type Drosophila RDL receptor (Drosophila melanogaster, UniProt P25123).
T2 construct: expressed in transfected cells; host or cells: Xenopus laevis oocytes injected with cRNA
T2 sequence (P25123 45-606): T1 sequence (P25123 45-606 A320Q) with Q276A
The description is as above. As for the experimental part:
as §1, §2, §3, §4

Experiment [3] has as its target T1, A21′Q mutant Drosophila RDL receptor. The experiment is described as follows: Thymol modulation of GABA concentration-response curves, two electrode voltage clamp in Xenopus oocytes. As for the experimental part:
as §1, §2, §3, §4

Experiment [4] concerns the target T3, T6′M mutant Drosophila RDL receptor (Drosophila melanogaster, UniProt P25123, T305M).
T3 construct: expressed in transfected cells; host or cells: Xenopus laevis oocytes injected with cRNA
T3 sequence (P25123 45-606 T305M): T1 sequence (P25123 45-606 A320Q) with T261M, Q276A
Described as above. As for the experimental part:
as §1, §2, §3, §4

In experiment [5] the target is T2, wild type Drosophila RDL receptor. The description is as above. To be noted: WT RDL. As for the experimental part:
as §1, §2, §3, §4

Setting [6] is: GABA EC50 control vs +100 μM thymol.
[7] abbreviates: GABA concentration-response in presence of 100 μM thymol.

Structures are written as SMILES. Numbering of substitutions follows the chain as printed.

For the compound `NCCCC(=O)O` [GABA], the “GABA nH (Hill slope)” value in experiment [1] worked out at 1.9 ± 0.4; in experiment [2], 1.6 ± 0.5.

With `Cc1ccc(C(C)C)c(O)c1` [Thymol, thymol], the “Effect of thymol on GABA-induced responses” value in experiment [3] (100 μM thymol, 1 μM GABA) is “enhance”; in experiment [4] (100 μM thymol, at some GABA concentrations), “inhibition”; in experiment [5] (100 μM thymol, 1 μM GABA), “enhance”. In addition, the “Fold change in EC50” value in experiment [3] (setting [6]) was 3.6; in experiment [4] (setting [6]), 3.4; in experiment [5] (setting [6]), 4.8. The “% Imax” value in experiment [3] (setting [7]) was 89 ± 4%; in experiment [4] (setting [7]), 35 ± 9%; in experiment [5] (setting [7]), 94 ± 3%.
